# Patent US9572882B2, “Compositions and methods for improving cardiovascular function” (RiboCor, INC., priority 2000, dated 2017)
# Entries after “also recorded” stand apart in the source; their conditions may differ. Like-named read-outs stand apart in the source and are kept apart here.
# Assays:
# plasma homocysteine = conditions: cited from earlier work
# [1] = test system: patients with chronic coronary artery disease with stable angina pectoris and chronic heart failure, class II and III; assay: Transthoracic echocardiography in double-blinded, randomized, crossover clinical study of ribose vs placebo; format: in vivo, human; conditions: oral
# Text: (§1) A double-blinded, randomized, crossover clinical study was initiated to determine whether patients with cardiovascular disease could find a ribose benefit at lower, safer doses. Patients with known chronic coronary artery disease with stable angina pectoris and chronic heart failure, class II and III (New York Classification, NYHA) were selected for the study. […] All patients were being treated with nitrates, molsidim and beta blockers. Three patients were also on diltiazem and an additional three on trapidil. Medications were not altered during the study. Exclusion criteria included patients <18 years of age, those with severe concurrent disease (renal failure, diabetes mellitus, neoplasia), evidence of hyperthyroidism and inability to follow the protocol.
# The study consisted of two treatment periods, three weeks in duration. Initially, either ribose or placebo (dextrose) was administered three times a day with meals. Five grams of either ribose of or placebo was dissolved in approximately eight ounces of fluid shortly before administration. Following the initial treatment period, the patients were given no ribose or placebo treatment for one week as a washout period. The patients were then given the alternate treatment for three weeks for the crossover phase of the study.
# Measured objectives parameters of systolic and diastolic function were assessed with transthoracic echocardiography. Subjectively, quality of life using the SF36 form, and physical function (exercise tolerance) were assessed. All of the above parameters were assessed at pre- and post-treatment in both arms of the study.
# Each echocardiographic assessment was performed by the same clinical individual and accumulated data were analyzed by two cardiologists in a blinded manner, with a consensus establishing a final result. All studies were conducted with commercially available equipment (System V, GE, Norway). To allow off-line quantitative analysis of the echocardiographic data, studies were recorded on videotape with selected cine-loops and velocity spectra digitally transferred to a Macintosh G4 computer (Apple Computers, CA) for subsequent analysis. Software provided by the manufacturer (Echopac®, GE, Norway) was used for data evaluation.
# Each echocardiographic assessment was performed transthoracically and a 1.7/3.4 MHZ harmonic transducer was used with the patient examined in the left lateral decubitus position. A one-lead electrocardiogram was recorded continuously during echocardiographic assessment. The M-Mode left atrial dimension was measured at end-systole in the parasternal long-axis view and left ventricular ejection fraction was determined according to the recommendations of the North American Society of Echocardiography. In addition, left atrial volume was determined using the Simpson's rule in the 4 chamber view. Transmitral Doppler inflow velocities were recorded from the apical four-chamber view with the sample volume positioned between the tips of the mitral leaflets during quiet respiration.
# The parameters derived from the transmitral velocity spectra were: peak velocity of the early (E) and atrial filling (A) waves, the corresponding velocity time integrals (VTIE and VTIA and the percentage of atrial contribution to total left ventricular filling. The deceleration slope of the E wave was also measured. The percentage of atrial contribution to total left ventricular filling was determined by dividing the VTIA by the total diastolic velocity time integral. The results of five consecutive heart cycles were averaged in each patient to obtain a justified value.
# Analysis of variance for repeated measures (ANOVA) was used for the analysis of serial changes of continuous parameters within and between the randomized, assigned treatment arms, i.e. ribose vs placebo. Further comparison were subject to Bonferroni correction. In all cases, a p value s 0.05 was considered statistically significant.
# [2] = test system: patients with chronic coronary artery disease and chronic heart failure; assay: Quality of life (SF 36 form) and physical function in the crossover study; format: in vivo, human; conditions: oral, 5 g three times a day for three weeks
# Text: as §1, with “protocol. The study consisted of two treatment periods, three weeks in duration. Initially, either ribose or placebo (dextrose) was administered three times a day with meals. […] Measured objectives parameters of systolic and diastolic function were assessed with transthoracic echocardiography. Subjectively, quality of life using the SF36 form, and physical function (exercise tolerance) were assessed. All of the above parameters were assessed at pre- and post-treatment in both arms of the study. Quality of life was assessed in each patient using the SF 36 form. […]” for “protocol.”
# [3] = test system: patients with chronic coronary artery disease and chronic heart failure; assay: Semi-upright bicycle exercise test in the crossover study; format: in vivo, human; conditions: beginning vs end of the treatment period
# Text: as §1, with “protocol. The study consisted of two treatment periods, three weeks in duration. Initially, either ribose or placebo (dextrose) was administered three times a day with meals. Five grams of either ribose of or placebo was dissolved in approximately eight ounces of fluid shortly before administration. Following the initial treatment period, the patients were given no ribose or placebo treatment for one week as a washout period. […] Rate pressure product (RPP) was calculated using systolic blood pressure times heart rate and expressed in RPP units.” for “protocol.”
# [4] = test system: subject with borderline blood pressure; assay: Blood pressure in one subject with borderline hypertension given ribose; format: in vivo, human
# Text: As shown in Example 1, treatment with ribose improves diastolic cardiac function. Since hypertension is accompanied by left ventricular dysfunction, it is expected that the administration of ribose to patients experiencing hypertension with result in a benefit. One subject has been tested. Their blood pressure has been tested at borderline values of 130/90. Following daily administration of ribose at 5-10 grams per day, their blood pressure was lowered to as low as 108/78.
# [5] = test system: patients with cardiovascular disease; athletes; conditions: cited from earlier work
# [6] = test system: patients with heart failure; patients with angina; conditions: cited from earlier work
# congestive heart failure = conditions: 4 weeks of supplementation (Azuma et al 1983); cited from earlier work
# [7] = 5 g three times a day for three weeks
# [8] = 5 g three times a day for three weeks, p ≦ .005 vs dextrose placebo
structure (smiles),measurement,setting,value
Nc1nc2ncc(CNc3ccc(C(=O)N[C@@H](CCC(=O)O)C(=O)O)cc3)nc2c(=O)[nH]1 [Folic acid],reduction of plasma homocysteine levels,plasma homocysteine; 250 pg/d dose (Brouwer et al. 1999),11%
same,reduction of plasma homocysteine levels,plasma homocysteine; 300 pg/d in healthy individuals over 5 weeks (Mansoor),20%
same,reduction of plasma homocysteine,plasma homocysteine; 300 pg/day plus 120 mg/day of vitamin B6 (Mansoor),32%
same,reduction of plasma homocysteine levels,plasma homocysteine; 500 pg/d dose (Brouwer et al. 1999),22%
"O=C[C@H](O)[C@H](O)[C@H](O)CO [Ribose, D-Ribose]",atrial contribution to left ventricular filling as compared to placebo,[1]; [7],higher
same,deceleration time of the E wave as compared to placebo,[1]; [7],significant shorter
same,ejection fraction (EF),[1]; [7],51.0 ± 7.3%
same,left atria volume as compared to placebo,[1]; [7],significantly smaller
same,atrial contribution (Ac),"[1]; 5 g three times a day for three weeks, p < .01 vs dextrose placebo",45.3 ± 9.2 &
same,deceleration time of the E wave (Edc),[1]; [8],193.5 ± 45.9 ms
same,left ventricular systolic volume (LVVs),[1]; [8],64.4 ± 24.8 mL
same,stroke volume index (SVI),[1]; [8],2.63 ± .57 ml/body mass index
same,diastolic cardiac function,"[1]; relatively short term, severe coronary artery disease and congestive heart failure",significantly improved
same,overall score of the quality of life index,[2]; SF 36 form,significant improvement; also recorded: enhanced
same,physical function,[2],significant improvement
same,mean maximal attained exercise level,[3],not changed
same,pressure-lowering effects in further studies,"[4]; further studies, expected",expected to confirm the pressure-lowering effects
same,blood pressure after ribose,"[4]; one subject, borderline values of 130/90 before, 5-10 grams per day daily",108/78
same,benefit to patients with cardiovascular disease,[5]; 60 grams daily in four 15 gram doses for three days (Pliml 1992),benefited
same,side effects,[5]; 60 grams daily in four 15 gram doses,"hypoglycemia with concomitant dizziness, nausea and sweating; also recorded: abdominal distress and diarrhea"
same,treadmill performance of angina patients,[5]; orally administered high doses (Pliml et al 1992),increased
same,power output of athletes on exercise bikes,"[5]; supplemental ribose (U.S. Pat. No. 6,159,942)",greater
"N=C(N)NCCC[C@H](N)C(=O)O [arginine, L-arginine]",benefits for patients with heart failure,[6]; 5.6 to 12.6 g/day supplemental (Rector et al 1996),"increased blood flow, increased distances in a 6-minute walk test, and improved arterial compliance"
same,exercise capacity in patients with angina,"[6]; oral, 6 g/day for 3 days (Ceremuzynski et al 1997)",improved
NCCS(=O)(=O)O [taurine],"dyspnea, palpitation, crackles, edema, and New York Heart Association functional class",congestive heart failure,highly significant improvement
